Reference: ChEMBL document CHEMBL1153972, “Solution studies on the complex of 4'-epiadriamycin-d-(CGATCG)2 followed by time-resolved fluorescence measurement, diffusion ordered spectroscopy and restrained molecular dynamics simulations” (Bioorg Med Chem, 2009)
Active and inactive are the calls of the source.

Key:
Assay type in all cases: nucleic-acid assay
Nucleic Acid [1] = assay: Binding affinity to DNA d-(CGATCG)2 at drug to DNA ratio of 2:1 by time resolved fluorescence measurements
Nucleic Acid [2] = assay: Binding affinity to DNA d-(CGATCG)2 at drug to DNA ratio of 2:1 by 2D NOESY experiment
Nucleic Acid [3] = assay: Binding affinity to DNA d-(CGATCG)2 assessed as rate of diffusion by diffusion ordered spectroscopy study
Nucleic Acid [4] = assay: Binding affinity to DNA d-(CGATCG)2 by NMR study

Measured: Activity

COc1cccc2c1C(=O)c1c(O)c3c(c(O)c1C2=O)C[C@@](O)(C(=O)CO)C[C@@H]3O[C@H]1C[C@H](N)[C@@H](O)[C@H](C)O1
active: all assays above
